Like-named read-outs stand apart in the source and are kept apart here. Non-standard residues stand in square brackets, D forms with d. Residues, ends and D or L forms follow the SMILES beside them. Phe(3,4-Cl2) = N[C@@H](Cc1ccc(Cl)c(Cl)c1)C(=O)O; pT = C[C@@H](OP(=O)(O)O)[C@H](N)C(=O)O
How the values were obtained:
Type in all cases: binding
[1] = target: T1, human PLK1-PBD protein (Homo sapiens, UniProt P53350); experiment: Competitive fluorescence polarization (FP) assay, PLK1-PBD inhibition
T1 construct: a C-terminal polo-box domain (PBD)
T1 sequence (P53350 326-603 limits assumed): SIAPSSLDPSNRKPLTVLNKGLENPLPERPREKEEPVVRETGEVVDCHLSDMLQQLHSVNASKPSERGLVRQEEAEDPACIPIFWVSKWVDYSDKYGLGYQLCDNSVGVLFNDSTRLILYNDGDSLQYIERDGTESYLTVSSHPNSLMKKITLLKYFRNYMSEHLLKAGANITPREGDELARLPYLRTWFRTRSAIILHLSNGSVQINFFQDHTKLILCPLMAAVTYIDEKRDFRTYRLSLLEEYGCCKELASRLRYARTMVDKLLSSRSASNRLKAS
Procedure: (§1) To test the binding ability of 9 peptides to the PLK1-PBD, a competitive fluorescence polarization (FP) assay was performed (Table S1).
(§2) A total of 20 μL of 200 nM human PLK1-PBD protein in phosphate-buffered saline (PBS, pH 7.4) was mixed with 20 μL of tested peptides at various concentrations in each well of a 384-well black bottom plate (Corning 3575, Thermo Scientific, Massachusetts, USA). Then, 20 μL of 30 nM probe was added to each well. The plate was shaken at room temperature for 40 min. The polarization values in millipolarization units (mP) were measured at excitation/emission wave lengths of 485/535 nm using a SpectraMax Paradigm Multi-Mode Detection Platform (Molecular-Devices, Tokyo, Japan). The percentage inhibition of the tested peptides at each concentration was defined as […] 1 − (Pobs − Pmin)/(Pmax − Pmin). Pmax is the polarization of the wells containing PLK1-PBD and the probe, Pmin is the polarization of the free probe, and the Pobs is the polarization for the wells containing the peptides with a series of concentrations. According to a previously reported method, FITC-GPMQSpTPLNG-OH was used as the fluorescein-labeled peptide, which was dissolved in dimethyl sulfoxide (DMSO) and the final optimized concentration was set at 20 nM. Phosphopeptides used for competition binding assays were dissolved in assay buffer. The buffer is made up of 50 mM NaCl, 10 mM Tris (pH 8.0), 1 mM EDTA and 0.1% Nonidet P-40. We further performed the sensitivity by synthesizing two fluorescent probes, FITC-GPMQTSpTPKNG-OH for PLK2-PBD and FITC-GPLATSpTPKNG-OH for PLK3-PBD, respectively. All experiments were performed in triplicate and the data were analyzed using GraphPad Prism 6.0 software (GraphPad Software, San Diego, CA, USA).

[2] = target: T2, PLK2-PBD (Homo sapiens, UniProt Q9NYY3); experiment: Competitive fluorescence polarization (FP) assay, selectivity vs PLK2-PBD
T2 sequence (Q9NYY3 355-685 limits assumed): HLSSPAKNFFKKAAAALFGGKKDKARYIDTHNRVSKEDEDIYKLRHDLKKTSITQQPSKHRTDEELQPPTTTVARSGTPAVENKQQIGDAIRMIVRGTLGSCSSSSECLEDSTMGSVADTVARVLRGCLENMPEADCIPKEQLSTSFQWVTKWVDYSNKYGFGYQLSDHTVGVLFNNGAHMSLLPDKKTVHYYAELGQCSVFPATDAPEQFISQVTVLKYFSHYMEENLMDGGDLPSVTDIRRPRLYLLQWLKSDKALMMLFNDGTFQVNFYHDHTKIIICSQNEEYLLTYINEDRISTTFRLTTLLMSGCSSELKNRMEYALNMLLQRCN
Procedure: as §1
as §2, with “According to a previously reported method, FITC-GPMQSpTPLNG-OH was used as the fluorescein-labeled peptide, which was dissolved in dimethyl sulfoxide (DMSO) and the final optimized concentration was set at 20 nM. Phosphopeptides used for competition binding assays were dissolved in assay buffer. The buffer is made up of 50 mM NaCl, 10 mM Tris (pH 8.0), 1 mM EDTA and 0.1% Nonidet P-40. We further performed the sensitivity by synthesizing two fluorescent probes, FITC-GPMQTSpTPKNG-OH for PLK2-PBD and FITC-GPLATSpTPKNG-OH for PLK3-PBD, respectively.” left out

[3] = target: T3, PLK3-PBD (Homo sapiens, UniProt Q9H4B4); experiment: Competitive fluorescence polarization (FP) assay, selectivity vs PLK3-PBD
T3 sequence (Q9H4B4 335-646 limits assumed): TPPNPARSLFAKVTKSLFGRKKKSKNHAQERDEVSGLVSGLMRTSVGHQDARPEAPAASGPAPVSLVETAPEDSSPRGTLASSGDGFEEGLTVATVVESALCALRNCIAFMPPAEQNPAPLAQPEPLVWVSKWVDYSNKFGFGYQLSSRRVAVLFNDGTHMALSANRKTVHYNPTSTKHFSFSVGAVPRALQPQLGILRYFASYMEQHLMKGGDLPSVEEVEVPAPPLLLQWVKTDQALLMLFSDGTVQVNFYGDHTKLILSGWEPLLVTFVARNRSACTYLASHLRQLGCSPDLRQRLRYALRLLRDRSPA
Procedure: as §1
as §2, with “According to a previously reported method, FITC-GPMQSpTPLNG-OH was used as the fluorescein-labeled peptide, which was dissolved in dimethyl sulfoxide (DMSO) and the final optimized concentration was set at 20 nM. Phosphopeptides used for competition binding assays were dissolved in assay buffer. The buffer is made up of 50 mM NaCl, 10 mM Tris (pH 8.0), 1 mM EDTA and 0.1% Nonidet P-40. We further performed the sensitivity by synthesizing two fluorescent probes, FITC-GPMQTSpTPKNG-OH for PLK2-PBD and FITC-GPLATSpTPKNG-OH for PLK3-PBD, respectively.” left out

[4] = probe FITC-GPMQSpTPLNG-OH, room temperature 40 min, performed in triplicate, read-out: IC50
[5] = at 1 μM inhibitor concentration

| SMILES | IC50 [1, 4] [nM] | further results |
| --- | --- | --- |
| CC[C@H](C)[C@H](NC(=O)[C@H](C)NC(=O)[C@@H](NC(=O)[C@H](CO)NC(=O)[C@H](Cc1c[nH]cn1)NC(=O)[C@H](CC(C)C)NC(=O)[C@@H]1CCCN1C(=O)[C@@H]1CCCN1C(=O)[C@H](CCC(=O)O)NC(=O)[C@@H](N)Cc1ccc(O)cc1)[C@@H](C)OP(=O)(O)O)C(=O)NCC(=O)O [Peptide 1] (H-YEPPLHS[pT]AIG-OH) | 320 ± 20 | – |
| CC[C@H](C)[C@H](NC(=O)[C@H](C)NC(=O)[C@@H](NC(=O)[C@H](CO)NC(=O)[C@H](Cc1c[nH]cn1)NC(=O)[C@H](CC(C)C)NC(=O)[C@@H]1CCCN1C(=O)[C@@H]1CCCN1C(=O)[C@H](CC(=O)O)NC(=O)[C@@H](N)Cc1c[nH]c2ccccc12)[C@@H](C)OP(=O)(O)O)C(=O)O [Peptide 2] (H-WDPPLHS[pT]AI-OH) | 190 ± 10 | – |
| CC[C@H](C)[C@H](NC(=O)[C@H](C)NC(=O)[C@@H](NC(=O)[C@H](CO)NC(=O)[C@H](Cc1c[nH]cn1)NC(=O)[C@H](CC(C)C)NC(=O)[C@@H]1CCCN1C(=O)[C@@H]1CCCN1C(=O)[C@H](CCC(=O)O)NC(=O)[C@@H](N)Cc1ccccc1)[C@@H](C)OP(=O)(O)O)C(=O)O [Peptide 3] (H-FEPPLHS[pT]AI-OH) | 290 ± 20 | – |
| CC(C)C[C@H](NC(=O)[C@@H]1CCCN1C(=O)[C@@H]1CCCN1C(=O)[C@H](CCC(=O)O)NC(=O)[C@@H](N)Cc1ccccc1)C(=O)N[C@@H](Cc1c[nH]cn1)C(=O)N[C@@H](CO)C(=O)N[C@H](C(=O)N[C@@H](C)C(=O)NCC(=O)O)[C@@H](C)OP(=O)(O)O [Peptide 4] (H-FEPPLHS[pT]AG-OH) | 160 ± 20 | – |
| CC(C)C[C@H](NC(=O)[C@@H]1CCCN1C(=O)[C@@H]1CCCN1C(=O)[C@H](CC(N)=O)NC(=O)[C@@H](N)Cc1ccc(Cl)c(Cl)c1)C(=O)N[C@@H](Cc1c[nH]cn1)C(=O)N[C@@H](CO)C(=O)N[C@H](C(=O)N[C@@H](C)C(=O)O)[C@@H](C)OP(=O)(O)O [Peptide 5] (H-[Phe(3,4-Cl2)]NPPLHS[pT]A-OH) | – | IC50 ([2]; Table S2, probe FITC-GPMQTSpTPKNG-OH, triplicates): > 1000 nM; inhibition at 1 µM [2, 5]: ≤ 10%; IC50 ([1]; triplicates, mean ± SD of three data sets, read-out: IC50 PLK1-PBD): 70 nM; IC50 ([3]; Table S2, probe FITC-GPLATSpTPKNG-OH, triplicates): > 1000 nM; inhibition at 1 µM [3, 5]: ≤ 10% |
| CC(C)C[C@H](NC(=O)[C@@H]1CCCN1C(=O)[C@@H]1CCCN1C(=O)[C@H](C)NC(=O)[C@@H](N)Cc1c[nH]c2ccccc12)C(=O)N[C@@H](Cc1c[nH]cn1)C(=O)N[C@@H](CO)C(=O)N[C@H](C(=O)N[C@@H](C)C(=O)N[C@@H](CCCCN)C(=O)O)[C@@H](C)OP(=O)(O)O [Peptide 6] (H-WAPPLHS[pT]AK-OH) | 350 ± 110 | – |
| CC(C)C[C@H](NC(=O)[C@@H]1CCCN1C(=O)[C@@H]1CCCN1C(=O)[C@H](CCCCN)NC(=O)[C@@H](N)Cc1c[nH]c2ccccc12)C(=O)N[C@@H](Cc1c[nH]cn1)C(=O)N[C@@H](CO)C(=O)N[C@H](C(=O)N[C@@H](C)C(=O)NCC(=O)O)[C@@H](C)OP(=O)(O)O [Peptide 7] (H-WKPPLHS[pT]AG-OH) | 420 ± 200 | – |
| CC(C)C[C@H](NC(=O)[C@@H]1CCCN1C(=O)[C@@H]1CCCN1C(=O)[C@H](CCCCN)NC(=O)[C@@H](N)Cc1c[nH]cn1)C(=O)N[C@@H](Cc1c[nH]cn1)C(=O)N[C@@H](CO)C(=O)N[C@H](C(=O)N[C@@H](C)C(=O)O)[C@@H](C)OP(=O)(O)O [Peptide 8] (H-HKPPLHS[pT]A-OH) | 610 ± 320 | – |
| CC(C)C[C@H](NC(=O)[C@@H]1CCCN1C(=O)[C@@H]1CCCN1C(=O)[C@H](CCC(N)=O)NC(=O)[C@@H](N)Cc1c[nH]cn1)C(=O)N[C@@H](Cc1c[nH]cn1)C(=O)N[C@@H](CO)C(=O)N[C@H](C(=O)N[C@@H](C)C(=O)O)[C@@H](C)OP(=O)(O)O [Peptide 9] (H-HQPPLHS[pT]A-OH) | 720 ± 240 | – |
| CSCC[C@H](NC(=O)[C@@H]1CCCN1C(=O)CNC(=O)[C@H](C)NC(=O)[C@@H](N)CCSC)C(=O)N[C@@H](CCC(N)=O)C(=O)N[C@@H](CO)C(=O)N[C@H](C(=O)N1CCC[C@H]1C(=O)N[C@@H](CC(C)C)C(=O)N[C@@H](CC(N)=O)C(=O)NCC(=O)N[C@@H](C)C(=O)N[C@@H](CCCCN)C(=O)N[C@@H](CCCCN)C(=O)O)[C@@H](C)OP(=O)(O)O [Polo b oxtide, reference compound] (H-MAGPMQS[pT]PLNGAKK-OH) | 7920 ± 1030 | – |

Reference: PMC6982974, “Structure-Based Virtual Screening and Biological Evaluation of Peptide Inhibitors for Polo-Box Domain” (Molecules, 2019)
